In patent US10195201B2, “Heteroaryl-pyrimidinone compounds as PDE2 inhibitors” (Merck Sharp & Dohme Corp., priority 2015, dated 2019) one finds Ki data, which are given here for 18 compounds.

Read-outs that look alike come from different tables or passages of the source. Some results are limits rather than exact numbers.

For one assay, the target named is Rhesus PDE2A3 (Macaca mulatta, UniProt B3VTJ2). Nature of the assay: PDE2 fluorescence polarization (IMAP FP) inhibition assay, rhesus enzyme. Format: biochemical, rhesus macaque. How it is done: (§1) The activity of the compounds in accordance with the present invention as PDE2 inhibitors may be readily determined using a fluorescence polarization (FP) methodology (Huang, W., et al., J. Biomol Screen, 2002, 7: 215).
In a typical experiment the PDE2 inhibitory activity of the compounds of the present invention was determined in accordance with the following experimental method. Rhesus PDE2A3 was amplified from rhesus macaque brain cDNA (Biochain Institute, Hayward, Calif.) using primers based on human PDE2A sequence (accession NM_002599.3) where the forward primer containing a Kozak consensus was 5′-[…]-3′ and the reverse primer was 5′-[…]-3′. Amplification with Easy-A High-Fidelity PCR cloning enzyme (Stratagene, La Jolla, Calif.) was 95° C. for 2 minutes followed by thirty three cycles of 95° C. for 40 seconds, 52° C. for 30 seconds, and 72° C. for 2 minutes 48 seconds. Final extension was 72° C. for 7 minutes. The PCR product was TA cloned into pcDNA3.3-TOPO (Invitrogen, Carlsbad, Calif.) according to standard protocol. A consensus sequence was developed from multiple clones and then deposited into GenBank (EU812167). AD293 cells (Stratagene, La Jolla, Calif.) with 70-80% confluency were transiently transfected with rhesus PDE2A3/pcDNA3.3-TOPO using Lipofectamine 2000 according to manufacturer specifications (Invitrogen, Carlsbad, Calif.). Cells were harvested 48 hours post-transfection and lysed by sonication (setting 3, 10×5 sec pulses) in a buffer containing 20 mM HEPES pH 7.4, 1 mM EDTA and Complete Protease Inhibitor Cocktail Tablets (Roche, Indianapolis, Ind.). Lysate was collected by centrifugation at 75,000×g for 20 minutes at 4° C. and supernatant utilized for evaluation of PDE2 activity. The fluorescence polarization assay for cyclic nucleotide phosphodiesterases was performed using an IMAP® FP kit supplied by Molecular Devices, Sunnyvale, Calif. (product # R8139). […] Assays were performed at room temperature in 384-well microtiter plates with an incubation volume of 20.2 μL. Solutions of test compounds were prepared in DMSO and serially diluted with DMSO to yield 8 μL of each of 10 solutions differing by 3-fold in concentration, at 32 serial dilutions per plate. […] 0% of inhibition is determined by using DMSO (1% final concentrations).
A Labcyte Echo 555 (Labcyte, Sunnyvale, Calif.) is used to dispense 200 nL from each well of the titration plate to the 384 well assay plate. Ten microliters of a solution of enzyme (1/2000 final dilution from aliquots; sufficient to produce 20% substrate conversion) was added to the assay plate. Next 10 uL of a separate solution of the substrate FAM-labeled cAMP (50 nM final concentration product # R7506 from Molecular Devices) and the activator cGMP (1 uM final concentration), prepared in the assay buffer (10 mM Tris HCl, pH 7.2, 10 mM MgCl2, 0.05% NaN3 0.01% Tween-20, and 1 mM DTT) was added to the assay plate and shaken to mix. The reaction is allowed to proceed at room temperature for 60 minutes. A binding solution is then made from the kit components, comprised of 80% Solution A, 20% Solution B and binding reagent at a volume of 1/600 the total binding solution. The enzymatic reaction is stopped by addition of 60 μL of the binding solution to each well of the assay plates and the plates are sealed and shaken for 30 seconds. The plate was incubated at room temperature for at least one hour prior to determining the fluorescence polarization (FP). The parallel and perpendicular fluorescence of each well of the plate was measured using a Tecan Genios Pro plate reader (Tecan, Switzerland) or Perkin Elmer EnVision™ plate reader (Waltham, Mass.). Fluorescence polarization (mP) was calculated from the parallel (S) and perpendicular (P) fluorescence of each sample well and the analogous values for the median control well, containing only substrate (So and Po), using the following equation: Polarization (mP)=1000*(S/So−P/Po)/(S/So+P/Po).

The next assay concerns the target human PDE2A1 (Homo sapiens (Human), UniProt O00408). Nature of the assay: PDE2 fluorescence polarization (IMAP FP) inhibition assay, human enzyme. It counts as biochemical. Particulars: LabB; read-out: hPDE2 Ki (nM) LabB. How it is done:
as §1
Selectivity for PDE2, as compared to other PDE families, was assessed using the IMAPR technology. Human PDE10A2 enzyme was prepared from cytosolic fractions of transiently transfected HEK cells. All other PDE's were GST Tag human enzyme expressed in insect cells and were obtained from BPS Bioscience (San Diego, Calif.): PDE1A (Cat#60010), human PDE2A1(Cat#60020), PDE3A (Cat#60030), PDE4A1A (Cat#60040), PDE5A1 (Cat#60050), PDE6C (Cat#60060), PDE7A (Cat#60070), PDE8A1 (Cat#60080), PDE9A2 (Cat#60090), PDE11A4 (Cat#60110).
Assays for PDE 1 through 11 were performed in parallel at room temperature in 384-well microtiter plates with an incubation volume of 20.2 μL. Solutions of test compounds were prepared in DMSO and serially diluted with DMSO to yield 30 μL of each of ten solutions differing by 3-fold in concentration, at 32 serial dilutions per plate. […] A Labcyte POD 810 (Labcyte, Sunnyvale, Calif.) was used to dispense 200 nL from each well of the titration plate to make eleven copies of the assay plate for each titration, one copy for each PDE enzyme. A solution of each enzyme (dilution from aliquots, sufficient to produce 20% substrate conversion) and a separate solution of FAM-labeled cAMP or FAM-labeled cGMP from Molecular Devices (Sunnyvale, Calif., product # R7506 or cGMP#R7508), at a final concentration of 50 nM were made in the assay buffer (10 mM Tris HCl, pH 7.2, 10 mM MgCl2, 0.05% NaN3 0.01% Tween-20, and 1 mM DTT). Note that the substrate for PDE2 is 50 nM FAM cAMP containing 1000 nM of cGMP. The enzyme and the substrate were then added to the assay plates in two consecutive additions of 10 μL and then shaken to mix. The reaction was allowed to proceed at room temperature for 60 minutes. A binding solution was then made from the kit components, comprised of 80% Solution A, 20% Solution B and binding reagent at a volume of 1/600 the total binding solution. The enzymatic reaction was stopped by addition of 60 μL of the binding solution to each well of the assay plate. The plates were sealed and shaken for 10 seconds. The plates were incubated at room temperature for one hour, then the parallel and perpendicular fluorescence was measured using a Tecan Genios Pro plate reader (Tecan, Switzerland). The apparent inhibition constants for the compounds against all 11 PDE's was determined from the parallel and perpendicular fluorescent readings as described for PDE10 FP assay using the following apparent KM values for each enzyme and substrate combination: PDE1A (FAM cGMP) 70 nM, human PDE2A1 (FAM cAMP) 10,000 nM, PDE3A (FAM cAMP) 50 nM, PDE4A1A (FAM cAMP) 1500 nM, PDE5A1 (FAM cGMP) 400 nM, PDE6C (FAM cGMP) 700 nM, PDE7A (FAM cAMP) 150 nM, PDE8A1 (FAM cAMP) 50 nM, PDE9A2 (FAM cGMP) 60 nM, […] (FAM cAMP) 150 nM, PDE11A4 (FAM cAMP) 1000 nM. The intrinsic PDE2 inhibitory activity of a compound which may be used in accordance with the present invention may be determined by these assays. […]

Where [1] appears, read: LabA, read-out: rhPDE2 Ki (nM) LabA.
Setting [2] is: LabB, read-out: rhPDE2 Ki (nM) LabB.

Chain of Rhesus PDE2A3 (B3VTJ2 1-941): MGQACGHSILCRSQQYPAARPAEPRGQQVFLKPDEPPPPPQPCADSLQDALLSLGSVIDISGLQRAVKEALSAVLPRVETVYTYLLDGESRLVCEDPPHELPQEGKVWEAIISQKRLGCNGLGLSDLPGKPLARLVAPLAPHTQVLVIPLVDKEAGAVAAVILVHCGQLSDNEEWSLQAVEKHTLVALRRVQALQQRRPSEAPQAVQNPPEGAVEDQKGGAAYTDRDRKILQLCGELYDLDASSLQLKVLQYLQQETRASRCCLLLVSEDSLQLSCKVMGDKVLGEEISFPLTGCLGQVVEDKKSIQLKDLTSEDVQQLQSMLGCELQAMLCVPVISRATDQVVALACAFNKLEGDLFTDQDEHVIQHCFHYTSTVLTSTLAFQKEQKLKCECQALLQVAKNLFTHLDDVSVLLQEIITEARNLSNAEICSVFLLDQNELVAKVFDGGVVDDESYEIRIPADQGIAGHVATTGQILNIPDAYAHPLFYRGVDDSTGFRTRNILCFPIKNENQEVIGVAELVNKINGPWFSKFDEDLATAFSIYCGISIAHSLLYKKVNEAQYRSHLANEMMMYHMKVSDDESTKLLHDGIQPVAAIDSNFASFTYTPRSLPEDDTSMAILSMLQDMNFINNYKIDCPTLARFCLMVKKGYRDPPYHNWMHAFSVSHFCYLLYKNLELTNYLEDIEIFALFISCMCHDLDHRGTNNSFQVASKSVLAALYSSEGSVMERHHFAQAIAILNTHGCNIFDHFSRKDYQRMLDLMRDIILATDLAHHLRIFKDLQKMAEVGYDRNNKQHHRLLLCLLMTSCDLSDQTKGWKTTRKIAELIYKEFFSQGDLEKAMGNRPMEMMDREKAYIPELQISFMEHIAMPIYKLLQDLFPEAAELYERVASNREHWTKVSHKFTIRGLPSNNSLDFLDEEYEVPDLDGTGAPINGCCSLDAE
Chain of human PDE2A1 (O00408 other isoform, or with tags, fused parts or gaps): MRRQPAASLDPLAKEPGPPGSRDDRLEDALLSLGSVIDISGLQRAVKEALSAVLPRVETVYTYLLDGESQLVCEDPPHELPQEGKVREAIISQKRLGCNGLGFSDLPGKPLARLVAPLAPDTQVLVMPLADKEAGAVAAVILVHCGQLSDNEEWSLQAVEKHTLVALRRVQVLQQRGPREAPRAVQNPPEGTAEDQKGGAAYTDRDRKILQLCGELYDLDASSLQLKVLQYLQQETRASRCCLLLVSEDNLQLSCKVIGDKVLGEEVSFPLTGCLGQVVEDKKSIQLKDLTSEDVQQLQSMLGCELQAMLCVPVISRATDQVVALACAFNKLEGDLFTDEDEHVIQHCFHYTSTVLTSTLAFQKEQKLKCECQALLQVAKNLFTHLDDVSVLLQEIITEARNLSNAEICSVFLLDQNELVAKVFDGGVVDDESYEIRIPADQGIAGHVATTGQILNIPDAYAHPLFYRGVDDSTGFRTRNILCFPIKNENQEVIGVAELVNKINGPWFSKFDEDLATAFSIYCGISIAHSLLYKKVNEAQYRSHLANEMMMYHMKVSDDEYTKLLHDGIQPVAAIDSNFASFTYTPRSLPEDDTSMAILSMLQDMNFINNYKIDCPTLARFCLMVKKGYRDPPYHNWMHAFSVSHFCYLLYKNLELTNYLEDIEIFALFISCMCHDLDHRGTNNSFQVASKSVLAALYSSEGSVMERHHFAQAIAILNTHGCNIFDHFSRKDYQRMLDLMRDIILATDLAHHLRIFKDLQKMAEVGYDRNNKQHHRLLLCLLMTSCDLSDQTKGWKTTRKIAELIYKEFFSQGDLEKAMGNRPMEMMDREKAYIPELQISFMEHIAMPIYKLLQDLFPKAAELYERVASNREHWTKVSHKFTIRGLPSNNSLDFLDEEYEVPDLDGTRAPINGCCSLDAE

Turning to `Cc1nc(-c2cc(C(C)c3ccc(C(F)(F)F)cc3)ccn2)cc(=O)[nH]1` (stereo not drawn) [Example 22, 2-methyl-6-(4-(1-(4-(trifluoromethyl)phenyl)ethyl)pyridin-2-yl)pyrimidin-4(3H)-one], the results for the Ki on Rhesus PDE2A3 (setting [1]) and at Rhesus PDE2A3 (setting [2]) were 920 nM and 868 nM, respectively. Take `Cc1nc(-c2cn(C(C)c3ccc(C(F)(F)F)cc3)cn2)cc(=O)[nH]1` (single isomer, unassigned) [Example 16, (R)- or (S)-2-methyl-6-(1-(1-(4-(trifluoro-methyl)phenyl)ethyl)-1H-imidazol-4-yl) pyrimidin-4 (3H)-one]: the Ki on Rhesus PDE2A3 (setting [1]) was 340 nM. For the compound `Cc1nc(-c2cc(C(C)c3ccc(C(F)(F)F)cc3)ncn2)cc(=O)[nH]1` (single isomer, unassigned) [Example 32, (R)- or (S)-2-methyl-6′-(1-(4-(trifluoromethyl)phenyl)ethyl)-[4,4′-bipyrimi-din]-6(1H)-one], at human PDE2A1, the Ki turned out to be 64 nM.

In the case of `Cc1nc(-c2noc(C(C)c3ccc(C(F)(F)F)cc3)n2)cc(=O)[nH]1` (stereo not drawn) [Example 11, 2-Methyl-6-(5-(1-(4-(trifluoromethyl)phenyl)ethyl)-1,2,4-oxadiazol-3-yl)pyrimidin-4(3H)-one], the Ki was 1080 nM at Rhesus PDE2A3 (setting [1]) and 1750 nM on Rhesus PDE2A3 (setting [2]). Turning to `Cc1nc(-c2ncc(C(C)c3ccc(C(F)(F)F)cc3)[nH]2)cc(=O)[nH]1` (stereo not drawn) [Example 13, 2-Methyl-6-(5-(1-(4-(trifluoromethyl)phenyl)ethyl)-1H-imidazol-2-yl)pyrimidin-4(3H)-one], the inhibitory constant (Ki) is 868 nM at Rhesus PDE2A3 (setting [1]) and 631 nM on Rhesus PDE2A3 (setting [2]).

Take `Cc1nc(-c2nc(C(C)c3ccc(C(F)(F)F)cc3)no2)cc(=O)[nH]1` (stereo not drawn) [Example 12, 2-Methyl-6-(3-(1-(4-(trifluoromethyl)phenyl)ethyl)-1,2,4-oxadiazol-5-yl)pyrimidin-4(3H)-one]: the Ki on Rhesus PDE2A3 (setting [1]) came out at 1870 nM; at Rhesus PDE2A3 (setting [2]), 2410 nM.

Take `Cc1nc(-c2cn(C(c3ccc(C(F)(F)F)cc3F)C(C)C)cn2)cc(=O)[nH]1` (stereo not drawn) [Example 21, 6-(1-(1-(2-Fluoro-4-(trifluoromethyl)phenyl)-2-methylpropyl)-1H-imidazol-4-yl)-2-methylpyrimidin-4(3H)-one]: the Ki at Rhesus PDE2A3 (setting [2]) came to 110 nM. For `Cc1nc(-c2cncc(C(C)(O)c3ccc(C(F)(F)F)cc3)c2)cc(=O)[nH]1` (stereo not drawn) [Example 26, 6-(5-(1-Hydroxy-1-(4-(trifluoromethyl)phenyl)ethyl)pyridin-3-yl)-2-methylpyrimidin-4(3H)-one], at Rhesus PDE2A3 (setting [1]), the Ki was 1810 nM. With `Cc1nc(-c2ccnc(C(C)(O)c3ccc(C(F)(F)F)cc3)c2)cc(=O)[nH]1` (stereo not drawn) [Example 28, 6-(2-(1-hydroxy-1-(4-(trifluoromethyl)phenyl)ethyl)pyridin-4-yl)-2-methylpyrimidin-4(3H)-one], at Rhesus PDE2A3 (setting [1]), the Ki stood at 2880 nM. Turning to `Cc1nc(-c2cn([C@H](C)c3ccc(C(F)(F)F)cc3F)cn2)cc(=O)[nH]1` (single isomer, unassigned) [Example 14], the Ki on Rhesus PDE2A3 (setting [1]) is 298 nM. Take `Cc1nc(-c2nnc([C@H](C)c3ccc(C(F)(F)F)cc3)o2)cc(=O)[nH]1` (single isomer, unassigned) [Example 10]: the Ki was found to be 470 nM on Rhesus PDE2A3 (setting [1]) and 699 nM on Rhesus PDE2A3 (setting [2]).

For `Cc1nc(-c2cncc([C@@H](C)c3ccc(C(F)(F)F)cc3)c2)cc(=O)[nH]1` (single isomer, unassigned) [Example 23], at Rhesus PDE2A3 (setting [1]), the inhibitory constant (Ki) was over 1000 nM.

Turning to `Cc1nc(-c2cncc(C(C)c3ccc(C(F)(F)F)cc3)n2)cc(=O)[nH]1` (stereo not drawn) [Example 29, 2-Methyl-6-(6-(1-(4-(trifluoromethyl)phenyl)ethyl)pyrazin-2-yl)pyrimidin-4(3H)-one], the figures for the Ki on Rhesus PDE2A3 (setting [1]) and on Rhesus PDE2A3 (setting [2]) were 1710 nM and 1660 nM, respectively. With `Cc1nc(-c2cncc([C@@H](C)c3ccc(C(F)(F)F)cc3)c2)cc(=O)[nH]1` (single isomer, unassigned) [Example 24], the Ki at Rhesus PDE2A3 (setting [1]) stood at 826 nM. As for `Cc1nc(-c2nc(C(C)c3ccc(C(F)(F)F)cc3)cs2)cc(=O)[nH]1` (stereo not drawn) [Example 3, 2-Methyl-6-(4-(1-(4-(trifluoromethyl)phenyl)ethyl)thiazol-2-yl)pyrimidin-4(3H)-one], the Ki on Rhesus PDE2A3 (setting [1]) is 532 nM. Turning to `Cc1nc(-c2cncc(C(O)c3ccc(C(F)(F)F)cc3)c2)cc(=O)[nH]1` (stereo not drawn) [Example 25, 6-(5-(Hydroxy(4-(trifluoromethyl)phenyl)methyl)pyridin-3-yl)-2-methylpyrimidin-4(3H)-one], at Rhesus PDE2A3 (setting [1]), the Ki was 12900 nM.

As for `Cc1nc(-c2ccnc(C(C)c3ccc(C(F)(F)F)cc3)c2)cc(=O)[nH]1` (stereo not drawn) [Example 27, 2-Methyl-6-(2-(1-(4-(trifluoromethyl)phenyl)ethyl)pyridin-4-yl)pyrimidin-4(3H)-one], the inhibition constant (Ki) at Rhesus PDE2A3 (setting [1]) came to 1270 nM. Take `CCC(c1ccc(C(F)(F)F)cc1F)n1cnc(-c2cc(=O)[nH]c(C)n2)c1` (stereo not drawn) [Example 20, 6-(1-(1-(2-Fluoro-4-(trifluoromethyl)phenyl)propyl)-1H-imidazol-4-yl)-2-methylpyrimidin-4(3H)-one]: the Ki at Rhesus PDE2A3 (setting [2]) was found to be 123 nM.
